Like-named read-outs stand apart in the source and are kept apart here.

The test system of series [1] is HBV infected primary human hepatocytes. As to conditions: Tsai et al. 2017, Bam et al. 2016; cited from earlier work.
The conditions of series [2]: patients with mild allergic asthma; Tsitoura et al. 2015; cited from earlier work.
The test system of series [3] is NFκB pathway in Ramos-blue cells. As to the kind of experiment: Ramos-Blue NFκB/SEAP reporter assay with cysteine-capped linker-payloads, 72 h (Example 15). Format: cell-based. As to conditions: read-out: Relative Activation. The method, then:
A 50 mM cysteine stock was prepared in 0.1 M PBS pH 7.4. 10 equivalents of 50 mM cysteine were added to 1 equivalent of linker-payload to create a 2.50 mM solution. The reaction was vortexed and sat at room temperature for an hour to allow for the Michael addition to occur. After an hour, an aliquot was taken and run via UPLC-MS to ensure for the complete Michael reaction. The reaction was diluted to 1 mM using 0.1M PBS pH 7.4. The 1 mM solution was diluted to 500 uM and 50 uM in a 96-well plate to afford a final concentration of 50 uM and 5 uM in the cell suspension. The cell density and viability were calculated using the Countess Cell Counter and the proper volume of cells was removed in order to have a seeding density of 0.2×10^6 cells/mL per well. 135 uL of cell suspension was added to each well in a 96-well plate along with 15 uL of the corresponding linker-payload treatment. Each concentration was run in triplicate and incubated at 37° C. with 5% CO2 for 72 hours.
Invivogen's QUANTI-Blue™ solution was prepared by adding 200 uL of QB reagent and 200 uL of QB buffer to 19.6 mL of water. The resulting solution was vortexed and incubated at room temperature for ten minutes. The 96-well plate was centrifuged at 1990 rpm for ten minutes. Then, 40 uL of cell supernatant was added to 160 uL of the prepared QUANTI-Blue™ solution and incubated at 37° C. for 24 hours. The plate was read using the Molecular Devices i3x plate reader at a wavelength of 630 nm to determine the amount of SEAP production.
On the technique in general: In a reporter assay the amount or activity of a reporter protein is the signal.

A further series deals with hepatitis C virus. As to conditions: treatment of hepatitis C virus; Fidock et al. 2011; cited from earlier work.
Setting [4] is: Linker-Payload Dose 5 uM, cysteine-capped, 72 hours, SEAP at 630 nm.
Where [5] appears, read: Linker-Payload Dose 50 uM, cysteine-capped, 72 hours, SEAP at 630 nm.

Consider `CCCCOc1nc(N)c2c(n1)N(Cc1cccc(CN3CCCC3)c1)CC(=O)N2` [GS-9620], for which the Antiviral activity entry in series [1] is “no antiviral activity”.

As to `CCC[C@H](C)Oc1nc(N)c2[nH]c(=O)n(CCCCCN3CCCCC3)c2n1` [GSK-2245035], the “Efficacy on allergen-induced asthmatic response” value in series [2] is on record as “lack efficacy”. Regarding `CCCCc1nc2c(N)nc3ccccc3c2n1Cc1ccc(NC(=O)OCc2ccc(NC(=O)C(CCCNC(N)=O)NC(=O)C(NC(=O)CCCCCN3C(=O)C=CC3=O)C(C)C)cc2)cc1` (stereo not shown) [Mc_ValCitPABC_E104, 4-(2-(2-(6-(2,5-dioxo-2,5-dihydro-1H-pyrrol-1-yl)hexanamido)-3-methylbutanamido)-5-ureidopentanamido)benzyl 4-((4-amino-2-butyl-1H-imidazo[4,5-c]quinolin-1-yl)methyl)phenylcarbamate], the activation at 5 µM in series [3] (setting [4]) is 12.7%. Moreover, the activation at 50 µM in series [3] (setting [5]) was -19.2%. Taken in the same sequence, the figures for `CCOCc1nc2c(NC(=O)OCc3ccc(NC(=O)C(CCCNC(N)=O)NC(=O)C(NC(=O)CCCCCN4C(=O)C=CC4=O)C(C)C)cc3)nc3ccccc3c2n1CC(C)(C)O` (stereo not shown) [Mc_ValCitPABC_Resiquimod, 4-(2-(2-(6-(2,5-Dioxo-2,5-dihydro-1H-pyrrol-1-yl)hexanamido)-3-methylbutanamido)-5-ureidopentanamido)benzyl 2-(ethoxymethyl)-1-(2-hydroxy-2-methylpropyl)-1H-imidazo[4,5-c]quinolin-4-ylcarbamate] were 18.6% and -20.8%.

Regarding `CCCCc1nc2c(N)nc3ccccc3c2n1Cc1ccc(CNC(=O)C(CCCNC(N)=O)NC(=O)C(NC(=O)CCCCCN2C(=O)C=CC2=O)C(C)C)cc1` (stereo not shown) [Mc_ValCit_E66, N-(1-(1-(4-((4-amino-2-butyl-1H-imidazo[4,5-c]quinolin-1-yl)methyl)benzylamino)-1-oxo-5-ureidopentan-2-ylamino)-3-methyl-1-oxobutan-2-yl)-6-(2,5-dioxo-2,5-dihydro-1H-pyrrol-1-yl)hexanamide], in series [3] (setting [4]), the activation at 5 µM came out at 125%. The activation at 50 µM in series [3] (setting [5]) was -51.4%. Taken in the same sequence, the figures for `CCCCc1nc2c(N)nc3ccccc3c2n1Cc1ccc(NC(=O)C(CCCNC(N)=O)NC(=O)C(NC(=O)CCCCCN2C(=O)C=CC2=O)C(C)C)cc1` (stereo not shown) [Mc_ValCit_E104, N-(1-(1-(4-((4-amino-2-butyl-1H-imidazo[4,5-c]quinolin-1-yl)methyl)phenylamino)-1-oxo-5-ureidopentan-2-ylamino)-3-methyl-1-oxobutan-2-yl)-6-(2,5-dioxo-2,5-dihydro-1H-pyrrol-1-yl)hexanamide] were 238% and -50.9%.

Turning to `CCOCc1cc2c(NC(=O)C(CCCNC(N)=O)NC(=O)C(NC(=O)CCCCCN3C(=O)C=CC3=O)C(C)C)nc3ccccc3c2n1CC(C)(C)O` (stereo not shown) [Mc_ValCit_Resiquimod, 6-(2,5-Dioxo-2,5-dihydro-1H-pyrrol-1-yl)-N-(1-(1-(2-(ethoxymethyl)-1-(2-hydroxy-2-methylpropyl)-1H-pyrrolo[3,2-c]quinolin-4-ylamino)-1-oxo-5-ureidopentan-2-ylamino)-3-methyl-1-oxobutan-2-yl)hexanamide], in series [3] (72 h), the activation at 5 µM is 11.4% and the activation at 50 µM was -23.1%. As for `CCc1nc2c(N)nc3ccccc3c2n1CCCCNS(C)(=O)=O` [PF-4878691], the Therapeutic index entry with hepatitis C virus is “low therapeutic index”.
